# In the supplement of paper PMC10307832:
# Assays:
# Assay in all cases: relative viability (nuclei count vs DMSO), 5 days (fraction); higher = more cells survive
# [1] = compound: C1=CC2=NC=CN=C2C=C1/C=C/3\C(=O)NC(=O)S3 + Nc1nc2[nH]cc(CCc3ccc(C(=O)N[C@@H](CCC(=O)O)C(=O)O)cc3)c2c(=O)[nH]1 [Pemetrexed] (partner 0.2 µM)
# Procedure, shortened: (§1)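 Nuclei were stained with Hoechst during a one-step fixation (final 0.05% Triton X-100, 1% formaldehyde, 1 ug/ml Hoechst) carried out 5 days after dosing, then counted on 4× images. The cells, lung cancer lines in 1536-well plates, had been dosed by pin tool the day after seeding with one drug alone or a fixed anchor-drug dose plus five library-drug doses (not always all listed) in √10 steps. Relative viability is the nuclei count in treated wells divided by that in vehicle wells, and each value is the median of duplicate plates.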
# BGJ398 + OSI-027 = compound: CCN1CCN(c2ccc(Nc3cc(N(C)C(=O)Nc4c(Cl)c(OC)cc(OC)c4Cl)ncn3)cc2)CC1 [BGJ398] + COc1cccc2cc(-c3nc([C@H]4CC[C@H](C(=O)O)CC4)n4ncnc(N)c34)[nH]c12 [OSI-027] (partner 0.5 µM)
# Procedure, shortened: as §1
# BGJ398 + Decitabine = compound: CCN1CCN(c2ccc(Nc3cc(N(C)C(=O)Nc4c(Cl)c(OC)cc(OC)c4Cl)ncn3)cc2)CC1 [BGJ398] + Nc1ncn([C@H]2C[C@H](O)[C@@H](CO)O2)c(=O)n1 [Decitabine] (partner 2 µM)
# Procedure, shortened: as §1
# BGJ398 + Olaparib = compound: CCN1CCN(c2ccc(Nc3cc(N(C)C(=O)Nc4c(Cl)c(OC)cc(OC)c4Cl)ncn3)cc2)CC1 [BGJ398] + O=C(c1cc(Cc2n[nH]c(=O)c3ccccc23)ccc1F)N1CCN(C(=O)C2CC2)CC1 [Olaparib] (partner 8 µM)
# Procedure, shortened: as §1
Cell Line,relative viability ([1]; first compound 0.02 µM),relative viability ([1]; first compound 0.06325 µM),relative viability ([1]; first compound 0.2 µM),relative viability ([1]; first compound 0.6325 µM),relative viability ([1]; first compound 2 µM),relative viability (BGJ398 + OSI-027; first compound 0.01 µM),relative viability (BGJ398 + OSI-027; first compound 0.03162 µM),relative viability (BGJ398 + OSI-027; first compound 0.1 µM),relative viability (BGJ398 + OSI-027; first compound 0.3162 µM),relative viability (BGJ398 + OSI-027; first compound 1 µM),relative viability (BGJ398 + Decitabine; first compound 0.01 µM),relative viability (BGJ398 + Decitabine; first compound 0.03162 µM),relative viability (BGJ398 + Decitabine; first compound 0.1 µM),relative viability (BGJ398 + Decitabine; first compound 0.3162 µM),relative viability (BGJ398 + Decitabine; first compound 1 µM),relative viability (BGJ398 + Olaparib; first compound 0.01 µM),relative viability (BGJ398 + Olaparib; first compound 0.03162 µM),relative viability (BGJ398 + Olaparib; first compound 0.1 µM),relative viability (BGJ398 + Olaparib; first compound 0.3162 µM),relative viability (BGJ398 + Olaparib; first compound 1 µM)
NCI-H596,0.498,0.541,0.543,0.533,0.483,0.761,0.693,0.655,0.648,0.621,1.15,0.885,0.977,0.991,0.778,0.674,0.648,0.645,0.626,0.667
NCI-H322M,0.622,0.631,0.646,0.618,0.506,0.531,0.542,0.627,0.495,0.501,0.755,0.723,0.771,0.602,0.833,0.801,0.73,0.761,0.758,0.815
NCI-H522,1,0.871,1.12,0.925,0.747,0.686,0.608,0.575,0.664,0.687,0.665,0.625,0.685,0.665,0.644,0.714,0.684,0.607,0.651,0.621
NCI-H647,0.162,0.19,0.168,0.178,0.182,0.554,0.765,0.724,0.638,0.536,0.413,0.359,0.491,0.336,0.412,0.51,0.643,0.694,0.521,0.603
SK-MES-1,0.99,1.01,0.953,0.884,0.837,0.589,0.693,0.594,0.565,0.69,0.377,0.345,0.41,0.349,0.321,0.709,0.754,0.786,0.659,0.679
NCI-H2170,0.29,0.268,0.287,0.278,0.263,0.742,0.606,0.706,0.619,0.707,0.434,0.453,0.466,0.456,0.499,0.605,0.584,0.633,0.57,0.553
NCI-H2085,0.907,0.917,0.92,0.892,0.807,0.706,0.673,0.84,0.663,0.807,0.528,0.578,0.544,0.535,0.547,0.759,0.773,0.711,0.693,0.796
SW 1573,0.883,1.1,0.802,0.862,0.711,0.611,0.766,0.703,0.572,0.734,0.501,0.557,0.478,0.498,0.466,0.413,0.388,0.45,0.543,0.525
NCI-H441,0.25,0.276,0.307,0.229,0.253,0.621,0.626,0.758,0.564,0.62,–,0.26,0.275,0.273,0.224,–,0.619,0.483,0.555,0.536
LOU-NH91,0.376,0.326,0.391,0.399,0.407,0.667,–,0.734,0.478,0.728,0.837,0.676,0.813,0.649,0.821,0.884,0.707,0.92,0.699,0.927
NCI-H3122,0.224,0.216,0.205,0.2,0.195,0.91,1,0.941,1,1.05,0.394,0.416,0.458,0.478,0.42,0.628,0.611,0.661,0.596,0.654
NCI-H460,0.0621,0.0629,0.071,0.058,0.0661,0.63,0.733,0.81,0.642,0.719,0.418,0.515,0.592,0.53,0.438,0.39,0.42,0.428,0.414,0.381
NCI-H650,1.03,0.996,1.02,0.864,0.659,0.477,0.519,0.535,0.505,0.503,0.356,0.318,0.398,0.312,0.359,0.358,0.413,0.377,0.375,0.365
NCI-H661,0.94,1,0.982,0.845,0.905,0.618,0.723,0.766,0.752,0.742,0.51,0.491,0.61,0.55,0.529,0.7,0.737,0.822,0.736,0.727
NCI-H1793,0.726,0.74,0.837,0.727,0.715,0.326,0.309,0.241,0.229,0.243,0.479,0.457,0.451,0.423,0.376,0.828,0.721,1.02,0.824,0.739
NCI-H1734,0.384,–,0.427,0.436,0.362,0.589,0.645,0.675,0.579,0.702,0.456,0.555,0.409,0.404,0.47,0.504,0.622,0.627,0.609,0.607
